# Test results: US9790233B2, “Compositions and methods of modulating 15-PGDH activity” (CASE WESTERN RESERVE UNIVERSITY, priority 2012, dated 2017)
# Where two headings read alike, the source gives them in different places.
# Columns and labels:
# [1] = Survival after whole body irradiation; type: in vivo, C57BL/6J mice; settings: 11 Gy
# [2] = tested on: 15-PGDH luciferase fusion construct in V9m reporter cell line; test: 15-PGDH-luciferase fusion gene reporter induction, V9m cells; type: cell-based
# [3] = tested on: 15-PGDH luciferase fusion construct in LS174T reporter cell line; test: 15-PGDH-luciferase fusion gene reporter induction, LS174T cells; type: cell-based; settings: Homo sapiens
# 15-PGDH protein = 15-PGDH protein (Homo sapiens (Human), UniProt P15428); test: Inhibition of enzymatic activity of recombinant 15-PGDH in vitro (tritium transfer from PGE2 or NADH fluorescence); type: biochemical; settings: for inhibition at […]: read-out: Enzyme inhibition % ([…]), recombinant 15-PGDH, […] compound, Table 18; for IC50: recombinant 15-PGDH in vitro, read-out: Enzyme inhibition (IC50)
# Chain of 15-PGDH protein (P15428 whole entry, the tested form may be a part): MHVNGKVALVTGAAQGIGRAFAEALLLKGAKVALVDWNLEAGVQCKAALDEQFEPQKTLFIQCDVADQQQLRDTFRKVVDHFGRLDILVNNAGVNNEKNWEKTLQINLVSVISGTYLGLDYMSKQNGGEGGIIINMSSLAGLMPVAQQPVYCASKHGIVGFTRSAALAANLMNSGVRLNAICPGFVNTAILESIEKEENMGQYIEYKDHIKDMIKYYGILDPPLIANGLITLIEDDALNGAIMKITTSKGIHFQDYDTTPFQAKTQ
# [4] = tested on: 15-PGDH luciferase fusion construct in Vaco503 reporter cell line; test: 15-PGDH-luciferase fusion gene reporter induction, V503 cells; type: cell-based
# A549 cells = test: PGE2 levels in the medium of IL1-beta stimulated A549 cells;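 as to all read-outs here: PGE2 in the collected culture medium quantified by enzyme immunoassay (ELISA), with data drawn from three independent experiments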; type: cell-based; settings: for rank of reduction in levels of PGE2 in the medium / rank of PGE2 level in the medium: 100 nM drug; for rank of reduction in levels of PGE2 in the medium: FIG. 94; for rank of PGE2 level in the medium: FIG. 44
# [5] = read-out: V9M-SC3 Reporter activity ([…]) (%), […], Table 18, read-out: V9M-SC3 Reporter activity (2.5 μM) (%)
# [6] = read-out: Ls174T-SC1 reporter activity, % ([…]), […], Table 18, read-out: Ls174T-SC1 reporter activity, % (2.5 μM)
# [7] = read-out: Ls174T-SC1 reporter activity, % ([…]), […], Table 18, read-out: Ls174T-SC1 reporter activity, % (7.5 μM)
# [8] = read-out: Enzyme inhibition % (7.5 μM)
# [9] = read-out: V503-3H9-7 reporter activity, % ([…]), […], Table 18, read-out: V503-3H9-7 reporter activity, % (2.5 μM)
# [10] = read-out: V503-3H9-7 reporter activity, % ([…]), […], Table 18, read-out: V503-3H9-7 reporter activity, % (7.5 μM)
# [11] = read-out: V9M-SC3 Reporter activity ([…]) (%), V9m reporter cells, […] compound, % induction of luciferase activity over basal level, read-out: V9M-SC3 Reporter activity (2.5 μM) (%)
# [12] = read-out: V9M-SC3 Reporter activity ([…]), %, V9m reporter cells, […] compound, % induction of luciferase activity over basal level, read-out: V9M-SC3 Reporter activity (7.5 μM), %
# [13] = read-out: Ls174T-SC1 reporter activity, % ([…]), LS174T reporter cells, […] compound, % induction of luciferase activity over basal level, read-out: Ls174T-SC1 reporter activity, % (2.5 μM)
# [14] = read-out: Ls174T-SC1 reporter activity, % ([…]), LS174T reporter cells, […] compound, % induction of luciferase activity over basal level, read-out: Ls174T-SC1 reporter activity, % (7.5 μM)
# [15] = read-out: V503-3H9-7 reporter activity, % ([…]), V503 reporter cells, […] compound, % induction of luciferase activity over basal level, read-out: V503-3H9-7 reporter activity, % (2.5 μM)
# [16] = read-out: V503-3H9-7 reporter activity, % ([…]), V503 reporter cells, […] compound, % induction of luciferase activity over basal level, read-out: V503-3H9-7 reporter activity, % (7.5 μM)
# [17] = read-out: V9M reporter activity ([…]), […], % increased luciferase activity over basal level, 100 = doubling, read-out: V9M reporter activity (2.5 uM)
# [18] = read-out: V9M reporter activity ([…]), […], % increased luciferase activity over basal level, 100 = doubling, read-out: V9M reporter activity (7.5 uM)
# [19] = read-out: LS174T reporter activity ([…]), […], % increased luciferase activity over basal level, read-out: LS174T reporter activity (2.5 uM)
# [20] = read-out: LS174T reporter activity ([…]), […], % increased luciferase activity over basal level, read-out: LS174T reporter activity (7.5 uM)
# [21] = read-out: V503 reporter activity ([…]), […], % increased luciferase activity over basal level, read-out: V503 reporter activity (2.5 uM)
# [22] = read-out: V503 reporter activity ([…]), […], % increased luciferase activity over basal level, read-out: V503 reporter activity (7.5 uM)
# [23] = read-out: V9M reporter activity ([…]), […], % induction of luciferase activity over basal level, Table 17, read-out: V9M reporter activity (2.5 μM)
# [24] = read-out: V9M reporter activity ([…]), […], % induction over basal level, Table 17, read-out: V9M reporter activity (7.5 μM)
# [25] = read-out: LS174T reporter activity ([…]), […], % induction over basal level, Table 17, read-out: LS174T reporter activity (2.5 μM)
# [26] = read-out: lS174T reporter activity ([…]), […], % induction over basal level, Table 17, read-out: lS174T reporter activity (7.5 μM)
# [27] = read-out: V503 reporter activity ([…]), […], % induction over basal level, Table 17, read-out: V503 reporter activity (2.5 μM)
# [28] = read-out: V503 reporter activity ([…]), […], % induction over basal level, Table 17, read-out: V503 reporter activity (7.5 μM)
Compound,"activation at […] [2, 23] [%]","activation at […] [2, 24] [%]","activation at […] [3, 25] [%]","activation at […] [3, 26] [%]","activation at […] [4, 27] [%]","activation at […] [4, 28] [%]",further results
"2-(butylsulfinyl)-4-phenyl-6-(thiophen-2-yl)thieno[2,3-b]pyridin-3-amine [SW033291]",,,,,,,longer survival than vehicle control ([1]; 5 mg/kg IP daily): 48 h; day on which all mice were dead ([1]; control day 8): 10 days
COc1ccc(OC)c(N(CC(=O)Nc2ccc(C)cc2)S(=O)(=O)c2ccccc2)c1 [311333-86-5],,,,,,,"activation at […] [2, 5]: 53%; activation at […] [3, 6]: 30%; activation at […] [3, 7]: 53.4%; inhibition at […] (15-PGDH protein; [8]): 34%; activation at […] [4, 9]: 102%; activation at […] [4, 10]: 131%"
COc1ccc(NC(=O)CN(c2cc(OC)ccc2OC)S(=O)(=O)c2ccccc2)cc1 [333447-10-2],,,,,,,"percent induction of reporter activity over basal level at […] ([2]; read-out: V9M-SC3 Reporter activity % ([…]), 7.5 μM, Table 18): 10%; activation at […] [2, 5]: -0.5%; activation at […] [3, 6]: 7.54%; activation at […] [3, 7]: 14.4%; inhibition at […] (15-PGDH protein; read-out: Enzyme inhibition % (2.5 μM)): 27%; inhibition at […] (15-PGDH protein; [8]): 46.5%; activation at […] [4, 9]: 76.9%; activation at […] [4, 10]: 159%"
CCCC[S@](C)(O)c1sc2nc(-c3cccs3)cc(-c3ccccc3)c2c1N [SW033291 isomer B],,,,,,,IC50 (15-PGDH protein; Table 2): 0.00076 µM
CCOC(=O)CN(c1cc(OC)ccc1OC)S(=O)(=O)c1ccccc1 [SW202951],,,,,,,"activation at […] [2, 11]: 4.56%; activation at […] [2, 12]: 17.7%; activation at […] [3, 13]: 34.3%; activation at […] [3, 14]: 47.6%; Decrease PGE-2 (IL-1beta-A549, %) (A549 cells; media of IL-1beta stimulated A549 cells): −1.01%; activation at […] [4, 15]: 97.5%; activation at […] [4, 16]: 131%"
COc1ccc(S(=O)(=O)N(CC(=O)N2CCOCC2)c2cc(OC)ccc2OC)cc1 [SW207997],,,,,,,"activation at […] [2, 11]: 59.5%; activation at […] [2, 12]: 71%; activation at […] [3, 13]: 87.6%; activation at […] [3, 14]: 94.1%; rank of reduction in levels of PGE2 in the medium (A549 cells): greatest reduction in levels of PGE2; activation at […] [4, 15]: 149%; activation at […] [4, 16]: 157%"
COc1ccc(S(=O)(=O)N(CC(=O)N2CCCCCC2)c2cc(OC)ccc2OC)cc1 [SW207998],,,,,,,"activation at […] [2, 11]: 53.4%; activation at […] [2, 12]: 58.9%; activation at […] [3, 13]: 65.2%; activation at […] [3, 14]: 77%; rank of reduction in levels of PGE2 in the medium (A549 cells): greatest reduction in levels of PGE2; activation at […] [4, 15]: 144%; activation at […] [4, 16]: 147%"
"CCCC[S+]([O-])c1sc2nc(-c3nccs3)cc(-c3ccccc3)c2c1N (centres unmarked) [SW208066, 2-(butylsulfinyl)-4-phenyl-6-(thiazol-2-yl)thieno[2,3-b]pyridin-3-amine]",,,,,,,rank of PGE2 level in the medium (A549 cells): highest levels of PGE2
"CCCC[S+]([O-])c1sc2nc(-c3cccs3)nc(-c3ccccc3)c2c1N (centres unmarked) [SW208067, 6-(butylsulfinyl)-4-phenyl-2-(thiophen-2-yl)thieno[2,3-d]pyrimidin-5-amine]",,,,,,,"activation at […] [2, 17]: 122%; activation at […] [2, 18]: 108%; activation at […] [3, 19]: 94.3%; activation at […] [3, 20]: 79.6%; rank of PGE2 level in the medium (A549 cells): highest levels of PGE2; activation at […] [4, 21]: 94.3%; activation at […] [4, 22]: 79.6%"
"CCCC[S+]([O-])c1ncccc1[N+](=O)[O-] (centres unmarked) [SW208069, 2-(butylsulfinyl)-3-nitropyridine]",,,,,,,"IC50 (15-PGDH protein; Table 2, cells printed in uM): > 7.5 µM"
COc1ccc(N(CC(=O)Nc2ccc(CC#N)cc2)S(=O)(=O)c2ccccc2)cc1Cl [compound 919576],49.9,63,17.5,30.7,49.2,73.7,
COc1ccc(NC(=O)CN(c2ccccc2OC)S(C)(=O)=O)cc1 [compound 920847],9.26,17.7,6.18,2.97,-4.47,-10.6,
COc1ccc(OC)c(N(CC(=O)Nc2ccccc2Br)S(=O)(=O)c2ccc(OC)c(OC)c2)c1 [compound 924740],-0.54,6.33,7.69,16.7,20.2,52.2,
COc1ccc(OC)c(N(CC(=O)Nc2cccc(Br)c2)S(=O)(=O)c2ccc(OC)c(OC)c2)c1 [compound 939417],-11.2,-9.81,6.5,-1.64,12.6,16.2,
COc1ccc(OC)c(N(CC(=O)NC(C)c2ccccc2)S(=O)(=O)c2ccc(OC)c(OC)c2)c1 (centres unmarked) [compound 967134],-10.1,-2.64,5.11,5.73,18.4,36.1,
NC(=O)c1sc2nc(-c3cccs3)cc(-c3ccc(F)cc3)c2c1N [compound 980653],,,,,,,"activation at […] [2, 17]: 8.83%; activation at […] [2, 18]: 12%; activation at […] [3, 19]: 5.76%; activation at […] [3, 20]: 11%; activation at […] [4, 21]: -10.5%; activation at […] [4, 22]: -15.2%"
COc1ccc(OC)c(NC(=O)CN(c2ccccc2)S(=O)(=O)c2cc(Br)ccc2OC)c1 [compound 1002654],-2.58,-3.96,5.51,-1.24,0.78,19.2,
COc1ccc(OC)c(N(CC(=O)Nc2ccc(I)cc2C)S(=O)(=O)c2ccccc2)c1 [compound 1003012],-10.4,-0.9,5.54,19.8,34.4,58.5,
CCOC(=O)c1ccc(NC(=O)CN(c2cc(OC)ccc2OC)S(=O)(=O)c2ccc(OC)c(OC)c2)cc1 [compound 1003132],-5.6,-0.21,5.16,1.73,15.4,16.1,
COc1ccc(OC)c(N(CC(=O)Nc2ccccc2C(=O)NC(C)C)S(=O)(=O)c2ccc(OC)c(OC)c2)c1 [compound 1003378],-4.42,-3.27,7.3,1.27,7.23,16.7,
CCc1cccc(CC)c1NC(=O)CN(c1cc(OC)ccc1OC)S(=O)(=O)c1ccc(OC)c(OC)c1 [compound 1003429],12.6,4.17,8.82,-6.88,-7.46,-19.2,
COc1ccc(OC)c(N(CC(=O)Nc2ccc(Br)cc2F)S(=O)(=O)c2ccc(C)cc2)c1 [compound 1004292],0.88,-0.21,20.3,0.14,23.5,21.2,
